Data: ChEMBL document CHEMBL5032524, “Discovery of novel IDO1 inhibitors targeting the protein's apo form through scaffold hopping from holo-IDO1 inhibitor” (Bioorg Med Chem Lett, 2021)

Tests used:
[1] = target: T1, Indoleamine 2,3-dioxygenase 1 (Homo sapiens, UniProt P14902); assay: Inhibition of IDO1 in human HeLa cells; type: cell-based
[2] = target: T1, Indoleamine 2,3-dioxygenase 1; assay: Inhibition of recombinant human IDO1

T1 sequence (P14902 whole entry): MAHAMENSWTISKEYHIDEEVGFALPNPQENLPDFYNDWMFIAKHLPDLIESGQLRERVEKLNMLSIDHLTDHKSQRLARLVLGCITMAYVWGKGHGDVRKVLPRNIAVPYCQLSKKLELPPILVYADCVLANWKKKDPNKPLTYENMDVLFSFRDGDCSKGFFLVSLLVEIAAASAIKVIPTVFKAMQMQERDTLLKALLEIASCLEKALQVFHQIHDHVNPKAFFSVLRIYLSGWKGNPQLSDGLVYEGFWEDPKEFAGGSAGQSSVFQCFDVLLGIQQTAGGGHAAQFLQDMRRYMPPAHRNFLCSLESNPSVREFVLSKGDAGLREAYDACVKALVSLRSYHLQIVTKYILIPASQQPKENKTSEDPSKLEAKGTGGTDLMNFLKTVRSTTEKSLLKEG

| Structure (SMILES) | IC50 [1] [nM] | IC50 [2] [nM] |
| --- | --- | --- |
| Cc1ccc(NC(=O)Nc2cc(/C(=N/O)Nc3ccc(C)cc3)ccc2N(CC(C)C)CC(C)C)cc1 | 1340 | 1560 |
| CCCNC(=O)Nc1nonc1/C(=N/O)Nc1ccc(F)c(Br)c1 |  | 127 |
| Cc1ccc(NC(=O)Nc2cc(/C(=N/O)Nc3ccc(F)c(Br)c3)ccc2N(CC(C)C)CC(C)C)cc1 | 760 | 2300 |
| CC(C)CN(CC(C)C)c1ccc(/C(=N/O)Nc2ccc(F)c(Br)c2)cc1NC(=O)Nc1ccc(C(F)(F)F)cc1 | 2090 | > 3000 |
| Cc1ccc(N/C(=N\O)c2ccc(N(CC(C)C)CC(C)C)c(NC(=O)Nc3cncnc3)c2)cc1 | 440 | 2320 |

The remaining lines, values ahead:

| IC50 [1] [nM] | IC50 [2] [nM] | Structure (SMILES) |
| --- | --- | --- |
| 3110 | > 3000 | CCCCNC(=O)Nc1cc(/C(=N/O)Nc2ccc(F)c(Br)c2)ccc1N(CC(C)C)CC(C)C |
| 2610 | 2900 | CCCNC(=O)Nc1cc(/C(=N/O)Nc2ccc(F)c(Br)c2)ccc1N(CC(C)C)CC(C)C |
| 1340 | > 3000 | CC(C)CN(CC(C)C)c1ccc(/C(=N/O)Nc2ccc(F)c(Br)c2)cc1NC(=O)NC1CCCCC1 |
| 860 | > 3000 | CC(C)CN(CC(C)C)c1ccc(/C(=N/O)Nc2ccc(F)c(Br)c2)cc1NC(=O)Nc1cncnc1 |
| 440 | 1490 | CC(C)CN(CC(C)C)c1ccc(/C(=N/O)Nc2ccc(F)c(Br)c2)cc1NC(=O)Nc1ccc(Cl)cc1 |
